# According to PMC9098866, “Signal transduction in light-oxygen-voltage receptors lacking the active-site glutamine” (Nature Communications, 2022):
# Legend:
# [1] = molecular target: T1, A. sativa phototropin 1 LOV2 (AsLOV2) (Avena sativa, UniProt O49003, Q513L); assay: X-ray crystal structure; format: binding; conditions: dark-adapted 0.90 A (7PGZ) and blue-light freeze-trapped 0.98 A (7PH0); light: thioadduct with C450 (covalent, modelled noncovalent); sodium acetate pH 4.6-5.0
# T1 construct: gene NPH1-1; LOV2 domain residues 404-546 with flanking A'alpha and Jalpha helices; E. coli expression; N-terminal His6-SUMO tag cut by Senp2, leaving N-terminal GEF extension
# [2] = molecular target: T2, A. sativa phototropin 1 LOV2 (AsLOV2) (Avena sativa, UniProt O49003); assay: X-ray crystal structure; format: binding; conditions: dark-adapted 1.00 A (7PGX) and blue-light freeze-trapped 1.09 A (7PGY); light: thioadduct with C450 (covalent, not seen in density, modelled noncovalent); sodium acetate pH 4.6-5.0
# T2 construct: gene NPH1-1; LOV2 domain residues 404-546 with flanking A'alpha and Jalpha helices; E. coli expression; N-terminal His6-SUMO tag cut by Senp2, leaving N-terminal GEF extension
# T2 sequence (O49003 entry or part of it): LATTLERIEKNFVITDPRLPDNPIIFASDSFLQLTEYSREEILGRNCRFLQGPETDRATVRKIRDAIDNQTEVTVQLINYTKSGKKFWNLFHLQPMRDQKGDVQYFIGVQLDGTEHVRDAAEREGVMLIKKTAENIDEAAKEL
# T1 sequence (O49003 entry or part of it Q513L): as the sequence (O49003 entry or part of it) above, with Q110L counted along it
structure (smiles),measurement,setting,value
Cc1cc2nc3c(=O)[nH]c(=O)nc-3n(C[C@H](O)[C@H](O)[C@H](O)COP(=O)(O)O)c2cc1C [flavin mononucleotide],X-ray crystal structure,[1],the cofactors were generally modeled as noncovalently bound oxidized flavin mononucleotides
same,X-ray crystal structure,[2],"7pgx (wild-type, dark), 7pgy (wild-type, light), 7pgz (Q513L, dark), and 7ph0 (Q513L, light)"
